Laboratory results reported in patent publication US8129532B2, “Amino(oligo)thiophene dyes, preparation thereof, and optical methods of use” (The University of Connecticut, priority 2007, dated 2012).
Blank lines part the entries; values can stand above or below the compound they belong to.

How the values were obtained:
[1] = One-photon absorption and emission spectra in multilamellar lipid vesicles, water and ethanol; type: physicochemical
Description: […] The column indicating relative signal change for one-photon fluorescence also lists the excitation light source used and the lower bounds of the long-pass emission detected.
Absorption and emission spectra were obtained for a series of dyes with different acceptors: pyridinium (PY-1261), quinolinium (PY-212), and acridinium (PY-2240).

[2] = test system: NIE-115 mouse neuroblastoma; test: SHG and 2PF voltage sensitivity, 50 mV step, slow switching protocol on patch-clamped neuroblastoma cell; type: cell-based; details: comparator named in the sentence (PY-1266; PY-1268)
Description: For full details of our non-linear imaging microscope, we refer the reader to previously published descriptions. A. C. Millard, P. J. Campagnola, W. Mohler, A. Lewis, and L. M. Loew, “Second Harmonic Imaging Microscopy,” Meth. Enzymol. 361, 47-69 (2003); Millard, A. C., L. Jin, and L. M. Loew, “Second Harmonic Generation Imaging Microscopy with a High Power Ultrafast Fiber Laser,”Commercial and Biomedical Applications of Ultrafast Lasers. 5714-5716, 92-98 (2005); A. C. Millard, L. Jin, M.-D. Wei, J. P. Wuskell, A. Lewis, and L. M. Loew, “Sensitivity of Second Harmonic Generation from Styryl Dyes to Transmembrane Potential,” Biophys. J. 86, 1169-1176 (2004). Our current microscope combines a Fluoview (Olympus) scan-head and an Axiovert (Zeiss) inverted microscope constructed for multiple imaging methodologies including wide-field, one-photon excitation fluorescence imaging, as well as SHG and 2PF imaging. Our laser sources include a Mira (Coherent) Ti:sapphire laser and a Femtopower (Fianium) fiber laser operating at 1064 nm. […] Fluorescence is imaged (for linear imaging) or collected (for non-linear imaging) back through the excitation objective, while SHG is collected in the forward, transmitted light direction by a condenser, either 0.8 NA or 0.55 NA (Zeiss). […]

[3] = One-photon fluorescence relative signal change per 100 mV; details: excitation / long-pass emission (nm) given
Description: The left-most data columns of Table 1 are the absorption and emission maxima for one photon fluorescence in soybean multi-lamellar lipid vesicles used to mimic the membrane environment. The column indicating relative signal change for one-photon fluorescence also lists the excitation light source used and the lower bounds of the long-pass emission detected.

[4] = test system: NIE-115 mouse neuroblastoma; test: Time-dependence (kinetics) of SHG and 2PF signal change after voltage-clamp step; type: cell-based; details: time resolution 5 ms
Description: For full details of our non-linear imaging microscope, we refer the reader to previously published descriptions. A. C. Millard, P. J. Campagnola, W. Mohler, A. Lewis, and L. M. Loew, “Second Harmonic Imaging Microscopy,” Meth. Enzymol. 361, 47-69 (2003); Millard, A. C., L. Jin, and L. M. Loew, “Second Harmonic Generation Imaging Microscopy with a High Power Ultrafast Fiber Laser,”Commercial and Biomedical Applications of Ultrafast Lasers. 5714-5716, 92-98 (2005); A. C. Millard, L. Jin, M.-D. Wei, J. P. Wuskell, A. Lewis, and L. M. Loew, “Sensitivity of Second Harmonic Generation from Styryl Dyes to Transmembrane Potential,” Biophys. J. 86, 1169-1176 (2004). Our current microscope combines a Fluoview (Olympus) scan-head and an Axiovert (Zeiss) inverted microscope constructed for multiple imaging methodologies including wide-field, one-photon excitation fluorescence imaging, as well as SHG and 2PF imaging. Our laser sources include a Mira (Coherent) Ti:sapphire laser and a Femtopower (Fianium) fiber laser operating at 1064 nm. Millard, A. C., L. Jin, and L. M. Loew, “Second Harmonic Generation Imaging Microscopy with a High Power Ultrafast Fiber Laser,”Commercial and Biomedical Applications of Ultrafast Lasers. 5714-5716, 92-98 (2005). For excitation, we routinely use an IR-Achroplan (Zeiss) 40×, 0.8 NA water-immersion objective though for shorter wavelengths we also use an A-Plan (Zeiss) 40×, 0.65 NA air objective. Fluorescence is imaged (for linear imaging) or collected (for non-linear imaging) back through the excitation objective, while SHG is collected in the forward, transmitted light direction by a condenser, either 0.8 NA or 0.55 NA (Zeiss). For optimal collection, the numerical aperture of the condenser should be at least 1/√2 of the numerical aperture of the excitation objective (L. Moreaux, O. Sandre, S. Charpak, M. Blanchard-Desce, and J. Mertz, “Coherent Scattering in Multi-Harmonic Light Microscopy,” Biophys. J. 80, 1568-1574 (2001); L. Moreaux, O. Sandre, and J. Mertz. “Membrane Imaging by Second Harmonic Generation Microscopy,” J. Opt. Soc. Am. B. 17, 1685-1694 (2000)), though in practice a condenser of slightly lower numerical aperture will often suffice. Since the wavelength of second harmonic light is precisely half that of the excitation light, the choice of filter for SHG imaging is greatly simplified and the primary concern is the blocking of the excitation light that is also transmitted through the sample as well as fluorescence that is emitted forwards.
NIE-115 mouse neuroblastoma were cultured in DMEM with 10% fetal bovine serum and 1% antibiotic-antimycotic (Invitrogen, Carlsbad, Calif.) in a 60 mm plastic dish (353002, Becton Dickinson, Franklin Lakes, N.J.). The culture was maintained at 37° C. with 5% CO2 for a period of 48 hours prior to experimentation.
For experimentation the growth medium was replaced with 3 mL of Earle's Balanced Salt Solution (EBSS, Sigma, St. Louis, Mo.) with 20 mM HEPES (Merck Biosciences AG, Laufelfingen, Switzerland). The internal buffer, injected into the patch pipette, was a potassium aspartate (140 mM, Sigma, St. Louis, Mo.), sodium chloride (5 mM, Sigma, St. Louis, Mo.) and HEPES (10 mM) solution at a pH of 7.35. The pH was adjusted with potassium hydroxide and hydrochloric acid.
For characterizing the voltage-sensitivity of SHG and 2PF, we used a slow (˜0.1 Hz) switching protocol as previously described (A. C. Millard, P. J. Campagnola, W. Mohler, A. Lewis, and L. M. Loew, “Second Harmonic Imaging Microscopy,” Meth. Enzymol. 361, 47-69 (2003); Millard, A. C., L. Jin, and L. M. Loew, “Second Harmonic Generation Imaging Microscopy with a High Power Ultrafast Fiber Laser,” Commercial and Biomedical Applications of Ultrafast Lasers. 5714-5716, 92-98 (2005); A. C. Millard, L. Jin, M.-D. Wei, J. P. Wuskell, A. Lewis, and L. M. Loew, “Sensitivity of Second Harmonic Generation from Styryl Dyes to Transmembrane Potential,” Biophys. J. 86, 1169-1176 (2004)) with a 50 mV step. […]

[5] = test system: layer V pyramidal neurons; test: Toxicity / photodynamic damage: AP half-width during optical recording; details: Sprague-Dawley, rat
Description: S. Antic, G. Major, D. Zecevic, “Fast optical recordings of membrane potential changes from dendrites of pyramidal neurons”, Journal of Neurophysiology, 82, 1615-1621 (1999). Accumulation of reactive oxygen species (free radicals), which interact with and damage neuronal plasmalemma, is the most likely mechanism. J. B. Feix, B. Kalyanaraman, “Production of singlet oxygen-derived hydroxyl radical adducts during merocyanine-540-mediated photosensitization: analysis by ESR-spin trapping and HPLC with electrochemical detection”, Archives of Biochemistry & Biophysics, volume 291, pages 43-51 (1991). High intensity illumination during optical recording sessions excites large number of membrane bound dye molecules. Since styryl dyes have tendency to penetrate deep into the lipid bilayers (E. Fluhler, V. G. Burnham, L. M. Loew, “Spectra, membrane binding, and potentiometric responses of new charge shift probes”, Biochemistry, 24, 5749-5755 (1985)), free radicals are produced literally inside the neuronal membrane. […] S. D. Antic, “Action potentials in basal and oblique dendrites of rat neocortical pyramidal neurons”, Journal of Physiology 550, 35-50 (2003). […] Since dye loading was always done at room temperature (21° C.) and re-patching at 34° C., we could not compare AP shape and size before and after dye loading. Therefore, in order to check the extent of dye toxicity we designed a group of experiments in which neurons were injected and incubated at 34° C. During the dye injection (loading phase), in regular time intervals (3-5 min) direct current pulses was used to slowly charge the membrane and trigger an AP (FIG. 14A). Identical current pulse was then applied at the end of dye loading phase, just before the electrode pull-out (FIG. 14B) and after the 50-90 min incubation period (FIG. 14C, re-patch). […] To avoid AP jitter in optical recordings we used shorter and stronger current pulses (FIG. 14D, E, F, insets). However, from time to time we returned to AP-testing current injection protocol (FIG. 14D, E), while keeping the count on the number of cumulative high-intensity light exposures (# sweeps). […] Additional experimental details can be found in Ping Yan, Aifang Xie, Meide Wei, and Leslie M. Loew, “Amino(oligo)thiophene-Based Environmentally Sensitive Biomembrane Chromophores”, Journal of Organic Chemistry, published on web Jul. 30, 2008.

[6] = test system: layer V pyramidal neurons; test: Voltage-sensitive dye imaging of action potentials in intracellularly stained pyramidal neurons in brain slices; type: cell-based, Sprague Dawley rats
Description: Sprague Dawley rats (P21-42) were anesthetized with isoflurane, decapitated, and the brains were removed with the head immersed in ice-cold, artificial cerebrospinal fluid (ACSF), according to an animal protocol approved by the Center for Laboratory Animal Care, University of Connecticut. Brain slices (300 μm) were cut from frontal lobes in the coronal plane. ACSF contained (in mM) 125 NaCl, 26 NaHCO3, 10 glucose, 2.3 KCl, 1.26 KH2PO4, 2 CaCl2 and 1 MgSO4, pH 7.4. Whole-cell recordings were made from visually identified layer V pyramidal neurons on the medial part of the slice. Intracellular solution contained (in mM) 135 K-gluconate, 2 MgCl2, 3 Na2-ATP, 10 Na2-phosphocreatine, 0.3 Na2-GTP and 10 Hepes (pH 7.3, adjusted with KOH). Electrical signals were amplified with Multiclamp 700A and digitized with two input boards: (1) Digidata Series 1322A (Axon Instruments) at 5 kHz, and (2) Neuroplex (RedShirtImaging) at 2.7 kHz sampling rate. Only cells with a membrane potential more hyperpolarized than −50 mV, and action potential amplitudes exceeding 80 mV (measured from the base line) were included in this study. All experiments were performed on layer 5 cortical pyramidal cells at 34° C.
Blue dyes were stored in ethanol stock solution at −20° C. On the day of the recording blue dyes were dissolved in standard K-gluconate based intracellular solution. A loading pipette was filled with two varieties of the same intracellular solution; one with and one without dye. Dye-free solution was occupying the very tip of the pipette, while the back of the pipette lumen was microloaded with dye-rich solution. The purpose of dye-free solution in the tip of the patch pipette was to prevent dye-leak during the maneuver through brain slice tissue. VSD styryl dyes are lipophilic and bind indiscriminately and irreversibly to all membranes around the neuron of interest. Even a small amount of dye that leaks out of the pipette during the formation of the gigaohm seal, can generate strong fluorescent background. Fluorescent light emanating from surrounding tissue has a devastating effect on dendritic optical signals. Elimination of the background fluorescence is critical for dendritic voltage imaging. How much dye-free solution one should put in the tip depends on time period between the submersion of the patch pipette into the recording chamber and formation of the gigaohm seal. The faster one can perform this maneuver the less dye-free solution she needs to achieve optimal staining.
Blue VSD were injected at room temperature for 25-60 minutes. The filling pipette was carefully pulled out (outside-out patch) and brain slices were left to incubate for 20-120 minutes at room temperature. Just before optical recordings the cells were re-patched with dye-free pipette at the physiological temperature (34° C.).
Voltage-sensitive dye imaging was performed on a Zeiss Axioskope 2FS microscope equipped with NeuroCCD camera (RedShirtImaging). We used Zeiss 40× objective IR-Achroplan 0.80 W. The size of the square visual field captured by NeuroCCD camera was 384×384 um. In the place of the arc lamp (normally used for epi-illumination), we inserted a 200 μm fiber optic guide with a collimator. Laser beam was focused on the other side of the fiber optic guide using a microscope objective-like lens. This arrangement produced a motionless spot of laser light (˜25 μm in diameter) at the object plane. An illuminated section of the brain slice, projected onto the NeuroCCD camera, covered approximately 25 pixels when used with 40× objective lens. At this magnification, one pixel sampled a 4.8×4.8 square in the object plane. A region of interest (ROI) was brought into the laser spot using X-Y microscope platform. The laser beam was interrupted by an electro-programmable shutter (Uniblitz®). Attention was made to limit the exposure time during the recording and positioning of the neuron.

[7] = one photon, soybean multi-lamellar lipid vesicles

1PF Abs. Max [1, 7]: 530 nm
1PF Em. Max [1, 7]: 676 nm
SMILES: CC[N+](CC)(CC)CCC[n+]1ccc(/C=C/c2ccc(-c3ccc(N(C)C)s3)s2)cc1 [PY-1282]
SHG signal sensitivity relative to another dye [2]: three-fold increase
1PF Change (ΔF/F-100 mv) [3]: 8.0E−002; 640/>715 ΔF/F-100 mv
SHG Kinetics (exponential time constant) [4]: 16 ± 1 ms

Absorbance ethanol ([1]; ethanol): 584 nm
Emission ethanol ([1]; ethanol): 812 nm
Absorbance MLV ([1]; multilamellar lipid vesicles): 526 nm
Emission MLV ([1]; multilamellar lipid vesicles): 702 nm
Absorbance water ([1]; water): 490 nm
SMILES: CCN(CC)c1ccc2cc(/C=C/C=C/c3cc[n+](CCC[N+](C)(C)C)c4ccccc34)ccc2c1.[Br-].[Br-] [JPW-4090, Di-2-ANBDQPQ]
slope of linear fit, AP half-width versus cumulative sweeps [5]: 0.0003
sweeps recorded per session on average [5]: 114±67 sweeps
time since beginning of dye injection without AP broadening [5]: ≥ 192 min
polarity of optical signal at 532 nm excitation [6]: positive signals
polarity of optical signal at 658 nm excitation [6]: positive signals
optical signal amplitude of blue dye relative to red dye JPW-3028 ([6]; FIG. 11): approximately 3 times
AP-associated optical signal, single example (base line-to-peak) ([6]; FIG. 11, basal dendrite): 17 % ΔF/F
dF/F at 633 nm ([6]; backpropagating AP, basal dendrites 80-150 μm from soma, laser spot 633 nm, %): 12.70 ± 3.59%
dF/F at 658 nm ([6]; backpropagating AP, basal dendrites 80-150 μm from soma, laser spot 658 nm, %): 11.03 ± 2.24%
voltage sensitivity compared with red dye ([6]; basal dendrites 80-150 μm from soma): better sensitivity than red dye JPW-3028
S/N ratio at 633 nm ([6]; laser spot 633 nm): 5.48 ± 2.01
S/N ratio at 658 nm ([6]; laser spot 658 nm): 6.93±1.88
